Laboratory results taken from BindingDB's records for doi:10.1021/acs.jmedchem.1c01426 (University of The Pacific, 2021).

Target: Transthyretin (Homo sapiens) (UniProt P02766)
Test: Induction of stability of human recombinant interleukin 2 assessed as binding affinity of drug-conjugated rIL2 to human TTR in PBS buffer at pH 7.4 measured after 20 mins fluorescence polarization assay

Cc1n[nH]c(C)c1CCCOc1cc(OCCCc2cn(CCOCCOCCOCCOCCNC(=O)C3CCC(CN4C(=O)C=CC4=O)CC3)nn2)cc(C(=O)O)c1 (stereo unspecified)
Kd: 851 nM
